Read-outs that look alike come from different tables or passages of the source.
Tests used:
[1] = Water activity (aw) measured with Aqualab 3TE instrument; assay type: physicochemical; conditions: for Reduction of water activity compared with other screened materials (in words): additive screening, aqueous solutions
From the text: There is no device that can be put into a product to directly measure the water activity. However, the water activity of a product can be determined, indirectly, from the relative humidity of the air surrounding the sample when the air and the sample are at equilibrium. Therefore, the sample must be in an enclosed space where this equilibrium can take place. Once this occurs, the water activity of the sample and the relative humidity of the air are equal. The measurement taken at equilibrium is called an equilibrium relative humidity or ERH.
In practice, water activity can be determined by use of the Aqualab© (Decagon, Inc., Pullman, Wash.) or HygroLab© (Rotronic, Inc., Huntington, N.Y.). For all of the experimental water activity data recorded and detailed in this application, an Aqualab 3T-E instrument with an accuracy of +/−0.003 units and with automatic temperature equilibration (23.7+/−0.2° C.) capability was utilized.
In the AquaLab instrument, a sample is equilibrated within the headspace of a sealed chamber containing a mirror, an optical sensor, an internal fan, and an infrared temperature sensor. At equilibrium, the relative humidity of the air in the chamber is the same as the water activity of the sample. A thermoelectric (Peltier) cooler precisely controls the mirror temperature. An optical reflectance sensor detects the exact point at which condensation first appears. A beam of infrared light is directed onto the mirror and reflected back to a photodetector which detects the change in reflectance when condensation occurs on the mirror. A thermocouple attached to the mirror accurately measures the dew-point temperature. The internal fan is for air circulation, which reduces vapor equilibrium time and controls the boundary layer conductance of the mirror surface. Additionally, a thermopile sensor (infrared thermometer) measures the sample surface temperature. Both the dew point and sample temperatures are then used to determine the water activity. During a water activity measurement, the AquaLab repeatedly determines the dew-point temperature until vapor equilibrium is reached. Since the measurement is based on temperature determination, calibration is not necessary, but measuring a standard salt solution checks proper functioning of the instrument. If there is a problem, the mirror is easily accessible and can be cleaned in a few minutes.
Sunless tanning formulations typically contain 3-10% by weight of DHA as the primary tanning agent dissolved in water. DHA is a water soluble sugar, and, as with other sugars or solutes will decrease the water activity as compared to pure water (aw=1.00). Solutes dilute the water, increasing its entropy and therefore lowering its energy state. These two effects combine to lower the total free energy of the water.
An arbitrary upper limit of 0.900 for aqueous solutions of additives was set for the screening studies. In other words, any cosmetic or pharmaceutical additive investigated must lower the aw of water from 1.000 to 0.900 or below when tested at a concentration that was judged to be the upper practical limit for inclusion based on safety and general cosmetic acceptability.

skin [2] = assay: Tanning response on forearm skin, visual assessment of color development on a 1-6 point scale; assay type: in vivo, human
Description: Simple aqueous formulations of dihydroxyacetone and sodium lactate were first evaluated for tanning response on skin. The formulations evaluated and the tanning responses obtained are shown in Tables 3 (formulations) and Table 4 (tanning response of Table 3 formulas).
(§1) An equal amount of each formula (approximately 150 mg.) from Table 3 was applied to 2″×2″ adjacent sections of forearm, allowed to dry and covered with clothing for the duration of the testing. The application areas were visibly the same color prior to treatment with the solutions and this was confirmed via calorimeter readings. Visual assessment of color development was made 24 hours post application using a 1-6 point scale with 1 signifying no color development versus non-treated skin, 3 signifying moderate color development and 6 signifying intensely dark color development. A commercial sunless tanning solution containing 10% DHA was used as a positive control.
as §1, with “As before, an equal” for “An equal”, “Table 5” for “Table 3”, “via colorimeter” for “via calorimeter”, “24 hours and at 48” for “24”, “development.” for “development. A commercial sunless tanning solution containing 10% DHA was used as a positive control.”
A control formula containing 10% DHA, 5% butylene glycol and 5% methylsulfonylmethane was used as a positive control. Past studies as outlined in applicants' co-pending application Ser. No. 10/382,868 titled SUNLESS TANNING PRODUCTS AND PROCESSES, filed on Mar.

stratum corneum = assay: In vivo water binding capacity, Nova Dermal Phase Meter (conductance); conditions: added to aqueous solutions of DHA
Description: In addition to the water activity screening and the tanning experiments conducted with simple aqueous solutions of DHA, sodium lactate, and glycols, objective instrumental testing for in vivo water binding capacity of these DHA-sodium lactate-glycol solutions was conducted.
The Nova Meter measures water content of the top layers of the skin indirectly via conductance measurements.

[3] = moisture loss figure, Purac citation (Osipow); cited from earlier work
skin [4] = conditions: earlier studies of the applicant in prior filings Ser. No. 10/382,868 & 10/694,972; cited from earlier work

CC(O)C(=O)[O-].[Na+] (stereo not drawn) [Sodium Lactate, sodium lactate]
Water Activity (aw) ([1]; Sodium Lactate 6.0 % w/w): 0.991
Water Activity (aw) ([1]; Sodium Lactate 12.0 % w/w): 0.944
Water Activity (aw) ([1]; Sodium Lactate 18.0 % w/w): 0.913
Water Activity (aw) ([1]; Sodium Lactate 24.0 % w/w): 0.880
Water Activity (aw) ([1]; Sodium Lactate 30.0 % w/w): 0.840
Reduction of water activity compared with other screened materials (in words) [1]: capable of reducing the water activity to a greater extent than any other material screened
Water activity (Aw) ([1]; aqueous solutions at concentrations of 25% w/w or less): below 0.900
Concentration meeting the screening criterion of reduction of aw to 0.900 or less ([1]; read from Table 2): 18-24%
Effect on the tanning response of DHA (skin [2]; added to 5% DHA solutions): enhancement of the tanning response was recorded
Effect on the tanning response of DHA (skin [2]; use concentrations of 0.5-5.0%): Enhance the tanning response of DHA
Water holding capacity of the stratum corneum (moisturizing effect) (stratum corneum): improve the water holding capacity of the stratum corneum
Water-holding capacity [3]: double the capacity of glycerin

OCC(O)CO [glycerol, reference compound]
Lowering of water activity compared with other glycols (in words) ([1]; 10% in 10% DHA solution, Table 1): lower the water activity to a greater extent than the other glycols evaluated
Effect on the tanning response of DHA (skin [4]): somewhat of an inhibitory effect on the tanning response of DHA
Water-holding capacity [3]: equal water-holding capacity

CC(O)C(=O)O (stereo not drawn) [lactic acid]
Effect on the tanning response of DHA (skin [2]; added to 5% DHA solutions): enhancement of the tanning response was recorded
Water-holding capacity [3]: equal water-holding capacity

O=C1CCC(C(=O)[O-])N1.[Na+] (stereo not drawn) [Sodium PCA, sodium pyrrolidone carboxylic acid]
Reduction of water activity compared with other screened materials (in words) [1]: capable of reducing the water activity to a greater extent than any other material screened

Reference: US8182793B2, “Sunless tanning products and processes” (Concept Laboratories, priority 2004, dated 2012)
